The record followed here is paper PMC2943923, “Human Integrin α3β1 Regulates TLR2 Recognition of Lipopeptides from Endosomal Compartments” (PLoS ONE, 2010).

Broadly, the inhibition is the relative decrease from the control value, in per cent.

Experiment [1] deals with U937 macrophages. The experiment can be described thus: IL-6 secretion (ELISA) of U937 macrophages stimulated with Pam3CSK4. Format: cell-based, human. The settings on record: 100 ng/ml Pam3CSK4, 6 hours; for decrease in Pam3CSK4-induced IL-6 secretion relative to control cells: 100 ng/ml concanamycin A, p = 0.037; for decrease in Pam3CSK4-induced IL-6 secretion relative to control cells / mean secretion of IL-6 by inhibitor-treated cells: 500 µM bafilomycin A1, 1 µM monensin, 5 µM CPZ; for mean secretion of IL-6 by inhibitor-treated cells: inhibitor added 30 minutes before: 100 ng/ml concanamycin A. On the procedure: (§1) The human monocyte cell line U937 (American Type Culture Collection) was maintained in RPMI (Mediatech) with 10% FBS and 1% penicillin-streptomycin. For all experiments, U937 monocytes were differentiated at a concentration of 5×10^5 cells per well in 24-well plates with 100 nM phorbol 12-myristate 13-acetate (Sigma) for 48 hours. All experiments were performed under serum-free conditions, unless otherwise noted.
The TLR2/1 triacylated lipid ligand, Pam3CSK4 (Invivogen), biotinylated Pam3CSK4 (Axxora) or Pam3CSK4-rhodamine (Invivogen) were resuspended in endotoxin-free water. Pam3CSK4 was used at a concentration of 100 ng/ml to stimulate macrophages, and Pam3CSK4-biotin and Pam3CSK4-rhodamine were used at indicated concentrations.
Inhibition of endosomal acidification was achieved using inhibitors of V-ATPase, concanamycin A (100 ng/ml) and bafilomycin A1 (500 µM) (Sigma) or the ionophore monensin (1 µM) (Sigma). Clathrin-mediated endocytosis was inhibited with chlorpromazine (CPZ) (5 µM) (Sigma). Concentrations were chosen based on prior studies, [61]. All inhibitors were added 30 minutes prior to stimulation. For CPZ experiments, the media was replaced at the time of stimulation to remove CPZ. […]
Supernatants were collected 6 hours post stimulation. IL-6 and TNF-α were measured using the DuoSet enzyme linked immunoabsorbent assay (ELISA) kit (R&D systems) following the manufacturer's instructions.
A general note: ELISA stands for enzyme-linked immunosorbent assay.

In experiment [2] the test system is U937 macrophages. The experiment can be described thus: IL-6 transcript (qRT-PCR) in Pam3CSK4-stimulated U937 macrophages. Format: cell-based, human. The conditions noted are these: 1 µM monensin; 100 ng/ml Pam3CSK4, 6 hours, serum-free; normalized to β-actin (Fig. S2). On the procedure: (§2) Inhibition of endosomal acidification was achieved using inhibitors of V-ATPase, concanamycin A (100 ng/ml) and bafilomycin A1 (500 µM) (Sigma) or the ionophore monensin (1 µM) (Sigma). Clathrin-mediated endocytosis was inhibited with chlorpromazine (CPZ) (5 µM) (Sigma). Concentrations were chosen based on prior studies, [61]. All inhibitors were added 30 minutes prior to stimulation. For CPZ experiments, the media was replaced at the time of stimulation to remove CPZ.
(§3) Cells were collected at 6 hours post infection unless otherwise indicated. RNA was extracted using TRIzol (Invitrogen) following the manufacturer's instructions. RNA was resuspended in water containing RNaseOut (Invitrogen) and treated with DNaseI using the Turbo DNA-free kit (Ambion). cDNA was synthesized using the ImPromII kit (Promega) following the manufacturer's instructions. Quantification of cDNA was performed by quantitative RT-PCR (iCycler, BioRad) using the iQ SYBR Green Supermix (BioRad). Cycling parameters were 95°C for 15 minutes followed by 40 cycles of 95°C for 30 seconds, 60°C for 30 seconds, and 72°C for 30 seconds. Primers used to measure IL-6, TNF-α, and β-actin were published previously, [62]. Human integrin α3 primers, forward: 5′-[…]-3′, reverse 5′-[…]-3′ were generated by Primer Bank, ID# 6006011a1. […]
For orientation: Real-time PCR tracks product formation cycle by cycle.

Experiment [3] has as its system U937 macrophages. The experiment can be described thus: IL-6 secretion (ELISA) of U937 macrophages stimulated with B. burgdorferi. Format: cell-based, human. The conditions noted are these: for mean secretion of IL-6 by inhibitor-treated cells: B. burgdorferi MOI 10, 6 hours, serum-free, three experiments. The protocol: as §1
Clonal isolates of infectious, low passage B. burgdorferi sensu stricto (strain N40, clone D10E9) were cultured in Barbour-Stoenner-Kelley (BSK II) medium at 37°C as described, and used at multiplicity of infection (MOI) 10∶1.
as §2
For blocking antibody experiments, U937 macrophages were incubated for 2 hours prior to stimulation with 50 µg/ml of control mouse ascites fluid (NS-1 murine myeloma, Sigma-Aldrich) or anti-integrin α3β1 monoclonal antibody (P1B5, Millipore).
(§4) Supernatants were collected 6 hours post stimulation.

The subject of experiment [4] is U937 macrophages. The experiment can be described thus: IL-6 transcript (qRT-PCR) in B. burgdorferi-stimulated U937 macrophages. Format: cell-based, human. The conditions noted are these: 1 µM monensin; B. burgdorferi MOI 10, 6 hours, serum-free (Fig. S4). On the procedure: as §2, §3
The test system of experiment [5] is U937 macrophages. The experiment can be described thus: IFN-α1 transcript (qRT-PCR) in Pam3CSK4-stimulated U937 macrophages. Type of experiment: cell-based, human. The settings on record: 100 ng/ml Pam3CSK4, serum-free; for reduction of IFN-α1 transcript levels: 100 ng/ml concanamycin A or 1 µM monensin, 6 and 16 hours, p = 0.037. On the procedure:
as §2
as §3, with “6006011a1. Human integrin αv primers, forward: 5′-[…]-3′, reverse 5′-[…]-3′ were generated by Primer Bank, ID# 4504763a2. Human integrin α5 primers, forward: 5′-[…]-3′, reverse 5′-[…]-3′ were generated by Primer Bank, ID# 4504751a3. Human integrin α6 primers, forward: 5′-TCGGCACAGCAACCTTGAA-3′, reverse 5′-[…]-3′ were generated by Primer Bank, ID# 30046796a2. Human TLR2 primers, forward: 5′-[…]-3′, reverse 5′- […]-3′. Human TLR4 primers, forward: 5′-[…]-3′, reverse 5′-[…]-3′ were generated by Primer Bank, ID# 19924149a1. Human TLR7 primers, forward: 5′-[…]-3′, reverse 5′-[…]-3′. Human TLR9 primers, forward: 5′-GCGACCAGGCTCCCGAAGG-3′, reverse 5′-[…]-3′. Human IFN-α1 primers, forward: 5′-[…]-3′, reverse: 5′-[…]-3′ were generated by Primer Bank, ID# 13128950a1 [63], [64].” for “6006011a1.”

For experiment [6], the system named is U937 macrophages. The experiment can be described thus: TNF-α secretion (ELISA) of U937 macrophages stimulated with Pam3CSK4. Type of experiment: cell-based, human. The conditions noted are these: Fig S5A; 100 ng/ml concanamycin A or 1 µM monensin; 100 ng/ml Pam3CSK4, 6 hours, serum-free. On the procedure:
as §2, §4

Experiment [7] concerns U937 macrophages. The experiment can be described thus: IL-6 secretion of U937 macrophages stimulated with TNF-α (inhibitor control). Type of experiment: cell-based, human. The settings on record: pre-treatment with inhibitor, stimulation with TNF-α; data not shown. The protocol: as §2, §4
The test system of experiment [8] is U937 macrophages. The experiment can be described thus: IFN-β transcript (qRT-PCR) in Pam3CSK4-stimulated U937 macrophages. Format: cell-based, human. The conditions noted are these: 100 ng/ml Pam3CSK4, serum-free, 6 hrs or 16 hrs post stimulation. The protocol: as §3, with “6006011a1. Human integrin αv primers, forward: 5′-[…]-3′, reverse 5′-[…]-3′ were generated by Primer Bank, ID# 4504763a2. Human integrin α5 primers, forward: 5′-[…]-3′, reverse 5′-[…]-3′ were generated by Primer Bank, ID# 4504751a3. Human integrin α6 primers, forward: 5′-TCGGCACAGCAACCTTGAA-3′, reverse 5′-[…]-3′ were generated by Primer Bank, ID# 30046796a2. Human TLR2 primers, forward: 5′-[…]-3′, reverse 5′- […]-3′. Human TLR4 primers, forward: 5′-[…]-3′, reverse 5′-[…]-3′ were generated by Primer Bank, ID# 19924149a1. Human TLR7 primers, forward: 5′-[…]-3′, reverse 5′-[…]-3′.” for “6006011a1.”

Experiment [9] has as its system murine bone marrow derived macrophages. The experiment can be described thus: IFN-β induction in murine bone marrow derived macrophages. Type of experiment: cell-based. The settings on record: data not shown.
The mark [10] stands for this setting: Fig 5, serum-free, three experiments.
Where [11] appears, read: 100 ng/ml concanamycin A, 500 µM bafilomycin A1, 1 µM monensin.
The mark [12] stands for this setting: Homo sapiens, U-937, 6 h, read-out: inhibition of B. burgdorferi induction of IL-6.

Turning to `CN(C)CCCN1c2ccccc2Sc2ccc(Cl)cc21` [CPZ, chlorpromazine], in the experiment on U937 macrophages [1] (serum-free), the “decrease in Pam3CSK4-induced IL-6 secretion relative to control cells” value worked out at 49%. The “mean secretion of IL-6 by inhibitor-treated cells” value with U937 macrophages [1] (setting [10]) was 340 pg/mL.

Regarding `CC[C@@]1([C@@H]2O[C@@H]([C@H]3O[C@@](O)(CO)[C@H](C)C[C@@H]3C)C[C@@H]2C)CC[C@H]([C@]2(C)CC[C@]3(C[C@H](O)[C@@H](C)[C@@H]([C@@H](C)[C@@H](OC)[C@H](C)C(=O)O)O3)O2)O1` [monensin], the “reduction of IL-6 transcript” value with U937 macrophages [2] was found to be 32%; in the experiment on U937 macrophages [4], 51%. The “decrease in Pam3CSK4-induced IL-6 secretion relative to control cells” value in the experiment on U937 macrophages [1] (serum-free) turned out to be 38%. In addition, the “mean secretion of IL-6 by inhibitor-treated cells” value in the experiment on U937 macrophages [1] (setting [10]) amounted to 420 pg/mL; in the experiment with U937 macrophages [3] (setting [11]), 567 pg/mL. Also, the inhibition at 1 µM with U937 macrophages [3] (setting [12]) was 40%. The “reduction of IFN-α1 transcript levels” value in the experiment with U937 macrophages [5] is 88%. Besides, in the experiment on U937 macrophages [6], the “mean secretion of TNF-α by inhibitor-treated cells” value came to 567 pg/mL. In the experiment with U937 macrophages [7], the “change in secretion of IL-6 in response to TNF-α” value (shortened to “change in secretion”) is listed as “decrease in IL-6 secretion”.

Take “palmitoyl-3-Cys-Ser-(Lys)4 [Pam3CSK4, synthetic TLR2/1 triacylated lipid ligand, prototypical bacterial lipopeptide (Invivogen)]”: the “mean secretion of IL-6” value in the experiment on U937 macrophages [1] (Fig 1A, cells transduced with control shRNA, serum-free, mean of three independent experiments) was 350 pg/mL; with U937 macrophages [1] (Fig 2A, in the presence of 1% FBS, three experiments) it was 975 pg/mL; with U937 macrophages [1] (Fig 2A, serum-free, three experiments) it was 1,048 pg/ml; in the experiment on U937 macrophages [1] (Fig 2B, control shRNA cells, 1% FBS), 974 pg/mL; in the experiment on U937 macrophages [1] (Fig 2B, control shRNA cells, serum-free), 1,048 pg/ml; with U937 macrophages [1] (Fig 5, control cells (no inhibitor), serum-free, three experiments) it was 670 pg/mL. Also, the entries for the “induction of IFN-β” value (in the experiment with U937 macrophages [8]; in experiment [9]) were “did not observe any induction” and “confirm Pam3CSK4-induced IFN-β”, respectively. In the experiment with U937 macrophages [5], the “induction of IFN-α1 (interferon response)” value is recorded as “induces an interferon response”.

With `C/C=C/[C@H]1O[C@@](O)([C@@H](C)[C@H](O)[C@H](C)[C@H]2OC(=O)/C(OC)=C/C(C)=C/[C@@H](C)[C@@H](O)[C@@H](CC)[C@@H](O)[C@H](C)C/C(C)=C/C=C/[C@@H]2OC)C[C@@H](O[C@H]2C[C@@H](O)[C@H](OC(N)=O)[C@@H](C)O2)[C@@H]1C` [concanamycin A], the “decrease in Pam3CSK4-induced IL-6 secretion relative to control cells” value with U937 macrophages [1] (serum-free) is on record as 53%. Moreover, the “mean secretion of IL-6 by inhibitor-treated cells” value in the experiment with U937 macrophages [1] (setting [10]) worked out at 320 pg/mL; in the experiment on U937 macrophages [3] (setting [11]), 437 pg/mL. The “inhibition of B. burgdorferi induction of IL-6” value in the experiment with U937 macrophages [3] (100 ng/ml concanamycin A, 500 µM bafilomycin A1, 1 µM monensin, MOI 10, 6 hours, p = 0.037) was 56%. The “reduction of IFN-α1 transcript levels” value in the experiment on U937 macrophages [5] worked out at 84%. Further, the “mean secretion of TNF-α by inhibitor-treated cells” value in the experiment with U937 macrophages [6] is 928 pg/mL. Moreover, the “change in secretion” value in the experiment on U937 macrophages [7] is “no significant change”.

For the compound `CO/C1=C\C(C)=C\[C@@H](C)[C@@H](O)[C@@H](C)C/C(C)=C/C=C/[C@H](OC)[C@@H]([C@@H](C)[C@@H](O)[C@H](C)[C@@]2(O)C[C@@H](O)[C@H](C)[C@@H](C(C)C)O2)OC1=O` [bafilomycin A1], the “decrease in Pam3CSK4-induced IL-6 secretion relative to control cells” value in the experiment on U937 macrophages [1] (serum-free) is given as 37%. Also, the results for the “mean secretion of IL-6 by inhibitor-treated cells” value with U937 macrophages [1] (setting [10]) and with U937 macrophages [3] (setting [11]) were 430 pg/mL and 680 pg/mL, respectively. The inhibition at 500 µM in the experiment on U937 macrophages [3] (setting [12]) came to 30%. Further, in the experiment with U937 macrophages [7], the “change in secretion” value is recorded as “no significant change”.
